From ChEMBL document CHEMBL4304811, “Development of a Water-Soluble Indolylmaleimide Derivative IM-93 Showing Dual Inhibition of Ferroptosis and NETosis” (ACS Med Chem Lett, 2019)

Legend:
[1] = molecular target: Transient receptor potential cation channel subfamily M member 6 (Homo sapiens) (UniProt Q9BX84); experiment: Binding affinity to wild-type human partial length TRPM6 (Q1723 to I1998 residues) expressed in mammalian expression system assessed as residual binding level at 10 uM by Kinomescan method relative to control
[2] = molecular target: Myosin-IIIa (Homo sapiens) (UniProt Q8NEV4); experiment: Binding affinity to wild-type human partial length MYO3A (M1 to K338 residues) expressed in bacterial expression system assessed as residual binding level at 10 uM by Kinomescan method relative to control
[3] = molecular target: Serine/threonine-protein kinase NIM1 (Homo sapiens) (UniProt Q8IY84); experiment: Binding affinity to wild-type human partial length NIM1 (Q44 to N355 residues) expressed in mammalian expression system assessed as residual binding level at 10 uM by Kinomescan method relative to control
[4] = molecular target: Serine/threonine-protein kinase PAK 1 (Homo sapiens) (UniProt Q13153); experiment: Binding affinity to wild-type human partial length PAK1 (S149 to H545 residues) expressed in bacterial expression system assessed as residual binding level at 10 uM by Kinomescan method relative to control
Serine/threonine-protein kinase PAK 1 (Homo sapiens), sequence (Q13153 whole entry, the tested form may be a part): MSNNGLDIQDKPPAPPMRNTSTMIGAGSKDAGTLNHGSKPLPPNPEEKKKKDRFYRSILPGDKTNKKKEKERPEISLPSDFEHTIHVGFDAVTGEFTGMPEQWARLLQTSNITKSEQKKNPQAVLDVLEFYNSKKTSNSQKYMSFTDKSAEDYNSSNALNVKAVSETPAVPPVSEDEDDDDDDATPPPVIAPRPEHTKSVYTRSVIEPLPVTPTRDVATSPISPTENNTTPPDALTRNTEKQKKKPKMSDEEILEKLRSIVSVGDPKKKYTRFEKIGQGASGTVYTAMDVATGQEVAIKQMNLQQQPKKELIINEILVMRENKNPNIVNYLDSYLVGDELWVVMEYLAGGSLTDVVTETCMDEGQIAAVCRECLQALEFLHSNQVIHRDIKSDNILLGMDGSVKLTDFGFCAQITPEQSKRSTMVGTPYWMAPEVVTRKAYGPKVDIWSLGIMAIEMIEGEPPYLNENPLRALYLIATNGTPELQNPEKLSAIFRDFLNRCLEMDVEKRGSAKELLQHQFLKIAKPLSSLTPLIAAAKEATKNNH

[5] = molecular target: Tyrosine-protein kinase ITK/TSK (Homo sapiens) (UniProt Q08881); experiment: Binding affinity to wild-type human partial length ITK (R335 to L620 residues) expressed in bacterial expression system assessed as residual binding level at 10 uM by Kinomescan method relative to control
[6] = molecular target: Serine/threonine-protein kinase MRCK beta (Homo sapiens) (UniProt Q9Y5S2); experiment: Binding affinity to wild-type human partial length MRCKB (L56 to S417 residues) expressed in bacterial expression system assessed as residual binding level at 10 uM by Kinomescan method relative to control
Serine/threonine-protein kinase MRCK beta (Homo sapiens), sequence (Q9Y5S2 whole entry, the tested form may be a part): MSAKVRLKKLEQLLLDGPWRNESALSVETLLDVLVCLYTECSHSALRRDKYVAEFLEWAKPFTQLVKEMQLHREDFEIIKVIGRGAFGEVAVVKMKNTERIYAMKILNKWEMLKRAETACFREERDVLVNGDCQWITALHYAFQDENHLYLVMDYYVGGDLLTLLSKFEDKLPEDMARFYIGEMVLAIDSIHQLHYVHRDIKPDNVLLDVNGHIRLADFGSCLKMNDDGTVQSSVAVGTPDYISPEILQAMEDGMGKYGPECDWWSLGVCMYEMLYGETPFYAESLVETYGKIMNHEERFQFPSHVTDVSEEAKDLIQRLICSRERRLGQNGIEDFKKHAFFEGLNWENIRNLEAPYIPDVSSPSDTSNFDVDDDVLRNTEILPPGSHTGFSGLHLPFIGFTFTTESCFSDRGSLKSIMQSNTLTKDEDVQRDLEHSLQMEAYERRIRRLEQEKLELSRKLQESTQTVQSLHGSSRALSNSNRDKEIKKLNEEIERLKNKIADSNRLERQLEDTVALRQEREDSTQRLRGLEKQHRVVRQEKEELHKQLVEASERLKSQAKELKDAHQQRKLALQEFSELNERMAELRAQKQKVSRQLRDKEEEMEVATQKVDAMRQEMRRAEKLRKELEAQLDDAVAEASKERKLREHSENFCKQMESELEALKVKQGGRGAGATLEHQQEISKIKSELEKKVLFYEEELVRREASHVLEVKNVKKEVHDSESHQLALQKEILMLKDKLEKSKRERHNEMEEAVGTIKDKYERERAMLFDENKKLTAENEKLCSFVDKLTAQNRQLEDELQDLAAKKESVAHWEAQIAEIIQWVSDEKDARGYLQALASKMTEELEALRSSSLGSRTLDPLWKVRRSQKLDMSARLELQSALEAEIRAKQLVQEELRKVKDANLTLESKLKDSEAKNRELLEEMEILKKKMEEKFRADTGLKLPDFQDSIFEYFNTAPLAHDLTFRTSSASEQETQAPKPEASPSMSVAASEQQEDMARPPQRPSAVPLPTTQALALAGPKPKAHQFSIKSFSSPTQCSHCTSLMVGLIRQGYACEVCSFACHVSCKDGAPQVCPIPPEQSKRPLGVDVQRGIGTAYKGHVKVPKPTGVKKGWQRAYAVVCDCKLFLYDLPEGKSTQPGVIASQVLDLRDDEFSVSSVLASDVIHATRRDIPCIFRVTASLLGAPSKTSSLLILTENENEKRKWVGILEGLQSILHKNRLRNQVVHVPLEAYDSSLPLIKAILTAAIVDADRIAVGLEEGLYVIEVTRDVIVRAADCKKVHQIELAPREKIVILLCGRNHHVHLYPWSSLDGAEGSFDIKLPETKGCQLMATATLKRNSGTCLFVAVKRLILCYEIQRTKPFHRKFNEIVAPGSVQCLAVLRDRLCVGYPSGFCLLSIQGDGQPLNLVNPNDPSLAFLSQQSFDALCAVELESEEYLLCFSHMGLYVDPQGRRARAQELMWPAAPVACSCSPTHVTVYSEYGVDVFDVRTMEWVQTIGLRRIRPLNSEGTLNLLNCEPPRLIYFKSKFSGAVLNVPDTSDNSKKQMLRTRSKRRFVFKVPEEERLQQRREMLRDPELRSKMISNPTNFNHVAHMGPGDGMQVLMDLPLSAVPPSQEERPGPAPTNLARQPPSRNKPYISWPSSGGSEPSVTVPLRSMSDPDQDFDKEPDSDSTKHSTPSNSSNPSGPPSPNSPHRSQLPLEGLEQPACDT

[7] = molecular target: Serine/threonine-protein kinase 26 (Homo sapiens) (UniProt Q9P289); experiment: Binding affinity to wild-type human full length MST4 (M1 to P416 residues) expressed in mammalian expression system assessed as residual binding level at 10 uM by Kinomescan method relative to control
[8] = molecular target: Ribosomal protein S6 kinase alpha-6 (Homo sapiens) (UniProt Q9UK32); experiment: Binding affinity to wild-type human partial length C-terminal RSK4 kinase domain 2 (I401 to Y711 residues) expressed in bacterial expression system assessed as residual binding level at 10 uM by Kinomescan method relative to control
[9] = test system: Epidermal growth factor receptor (Homo sapiens), P00533 [L858R]; experiment: Binding affinity to human partial length EGFR L858R mutant (R669 to V1011 residues) expressed in bacterial expression system assessed as residual binding level at 10 uM by Kinomescan method relative to control
[10] = molecular target: Serine/threonine-protein kinase PLK1 (Homo sapiens) (UniProt P53350); experiment: Binding affinity to wild-type human partial length PLK1 (A33 to F325 residues) expressed in mammalian expression system assessed as residual binding level at 10 uM by Kinomescan method relative to control
[11] = molecular target: Aurora kinase C (Homo sapiens) (UniProt Q9UQB9); experiment: Binding affinity to wild-type human full length AURKC (M1 to S275 residues) expressed in bacterial expression system assessed as residual binding level at 10 uM by Kinomescan method relative to control
Aurora kinase C (Homo sapiens), sequence (Q9UQB9 whole entry, the tested form may be a part): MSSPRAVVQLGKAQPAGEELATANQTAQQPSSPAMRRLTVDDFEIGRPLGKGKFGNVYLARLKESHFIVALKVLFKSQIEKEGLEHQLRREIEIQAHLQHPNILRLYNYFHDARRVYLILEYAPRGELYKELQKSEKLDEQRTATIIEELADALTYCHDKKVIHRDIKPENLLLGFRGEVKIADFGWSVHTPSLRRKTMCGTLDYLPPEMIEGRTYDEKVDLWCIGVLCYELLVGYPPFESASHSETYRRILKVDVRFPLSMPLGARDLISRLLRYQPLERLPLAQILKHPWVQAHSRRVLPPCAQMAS

HL-60 = experiment: Cytoprotection against human HL60 cells assessed as inhibition of H2O2-induced cell death pretreated for 1 hr followed by H2O2 stimulation measured after 3 hrs by p-iodonitrotetrazolium violet dye based LDH assay; assay type: functional
[12] = test system: ALK tyrosine kinase receptor (Homo sapiens), Q9UM73 [L1196M]; experiment: Binding affinity to […] human partial length ALK L1196M mutant (I1088 to E1409 residues) expressed in mammalian expression system assessed as residual binding level at 10 uM by Kinomescan method relative to control
[13] = molecular target: Serine/threonine-protein kinase 3 (Homo sapiens) (UniProt Q13188); experiment: Binding affinity to wild-type human partial length MST2 (D17 to E318 residues) expressed in bacterial expression system assessed as residual binding level at 10 uM by Kinomescan method relative to control
[14] = test system: Phosphatidylinositol 4,5-bisphosphate 3-kinase catalytic subunit alpha isoform (Homo sapiens), P42336 [I800L]; experiment: Binding affinity to human partial length PIK3CA I800L mutant (R108 to N1068 residues) expressed in mammalian expression system assessed as residual binding level at 10 uM by Kinomescan method relative to control
[15] = test system: Mast/stem cell growth factor receptor Kit (Homo sapiens), P10721 [D816V]; experiment: Binding affinity to human partial length KIT D816V mutant (I571 to D952 residues) expressed in bacterial expression system assessed as residual binding level at 10 uM by Kinomescan method relative to control
[16] = molecular target: cAMP-dependent protein kinase catalytic subunit beta (Homo sapiens) (UniProt P22694); experiment: Binding affinity to wild-type human full length PKAC-beta (M1 to F351 residues) expressed in bacterial expression system assessed as residual binding level at 10 uM by Kinomescan method relative to control
[17] = molecular target: Dual specificity mitogen-activated protein kinase kinase 5 (Homo sapiens) (UniProt Q13163); experiment: Binding affinity to wild-type human partial length MEK5 (L98 to P448 residues) expressed in mammalian expression system assessed as residual binding level at 10 uM by Kinomescan method relative to control
[18] = molecular target: Receptor-type tyrosine-protein kinase FLT3 (Homo sapiens) (UniProt P36888); experiment: Binding affinity to wild-type human partial length FLT3 (V592 to Y969 residues) expressed in bacterial expression system assessed as residual binding level at 10 uM by Kinomescan method relative to control
Receptor-type tyrosine-protein kinase FLT3 (Homo sapiens), sequence (P36888 whole entry, the tested form may be a part): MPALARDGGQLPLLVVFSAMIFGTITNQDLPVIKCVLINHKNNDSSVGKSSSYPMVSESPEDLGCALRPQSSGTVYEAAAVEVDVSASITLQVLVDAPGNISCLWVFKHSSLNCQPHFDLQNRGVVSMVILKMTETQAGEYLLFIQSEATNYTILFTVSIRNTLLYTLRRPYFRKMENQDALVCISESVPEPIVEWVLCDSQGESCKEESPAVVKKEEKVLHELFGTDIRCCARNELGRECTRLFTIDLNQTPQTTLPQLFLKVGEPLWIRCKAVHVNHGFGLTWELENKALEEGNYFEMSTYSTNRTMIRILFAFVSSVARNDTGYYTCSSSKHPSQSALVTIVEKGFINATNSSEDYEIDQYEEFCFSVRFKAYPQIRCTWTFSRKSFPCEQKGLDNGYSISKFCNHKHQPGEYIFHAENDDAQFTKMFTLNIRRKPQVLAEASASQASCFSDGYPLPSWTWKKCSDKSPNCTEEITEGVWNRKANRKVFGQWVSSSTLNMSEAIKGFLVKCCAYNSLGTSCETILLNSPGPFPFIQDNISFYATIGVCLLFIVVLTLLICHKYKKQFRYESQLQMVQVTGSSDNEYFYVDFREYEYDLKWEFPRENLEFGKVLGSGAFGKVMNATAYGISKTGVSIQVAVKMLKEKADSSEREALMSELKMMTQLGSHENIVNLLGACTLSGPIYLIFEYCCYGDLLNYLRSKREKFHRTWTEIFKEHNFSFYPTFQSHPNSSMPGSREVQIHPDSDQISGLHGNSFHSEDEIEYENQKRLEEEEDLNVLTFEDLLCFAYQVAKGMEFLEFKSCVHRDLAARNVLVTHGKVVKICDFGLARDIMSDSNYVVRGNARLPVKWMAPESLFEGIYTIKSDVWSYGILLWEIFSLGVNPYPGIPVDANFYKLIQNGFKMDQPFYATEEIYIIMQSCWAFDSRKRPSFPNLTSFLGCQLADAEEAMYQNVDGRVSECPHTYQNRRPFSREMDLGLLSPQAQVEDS

[19] = molecular target: Inhibitor of nuclear factor kappa-B kinase subunit epsilon (Homo sapiens) (UniProt Q14164); experiment: Binding affinity to wild-type human full length IKK-epsilon (M1 to V716 residues) expressed in mammalian expression system assessed as residual binding level at 10 uM by Kinomescan method relative to control
[20] = molecular target: Ephrin type-B receptor 1 (Homo sapiens) (UniProt P54762); experiment: Binding affinity to wild-type human partial length EPHB1 (P589 to T911 residues) expressed in bacterial expression system assessed as residual binding level at 10 uM by Kinomescan method relative to control
[21] = molecular target: Rhodopsin kinase GRK1 (Homo sapiens) (UniProt Q15835); experiment: Binding affinity to wild-type human full length GRK1 (M1 to S563 residues) expressed in mammalian expression system assessed as residual binding level at 10 uM by Kinomescan method relative to control
Rhodopsin kinase GRK1 (Homo sapiens), sequence (Q15835 whole entry, the tested form may be a part): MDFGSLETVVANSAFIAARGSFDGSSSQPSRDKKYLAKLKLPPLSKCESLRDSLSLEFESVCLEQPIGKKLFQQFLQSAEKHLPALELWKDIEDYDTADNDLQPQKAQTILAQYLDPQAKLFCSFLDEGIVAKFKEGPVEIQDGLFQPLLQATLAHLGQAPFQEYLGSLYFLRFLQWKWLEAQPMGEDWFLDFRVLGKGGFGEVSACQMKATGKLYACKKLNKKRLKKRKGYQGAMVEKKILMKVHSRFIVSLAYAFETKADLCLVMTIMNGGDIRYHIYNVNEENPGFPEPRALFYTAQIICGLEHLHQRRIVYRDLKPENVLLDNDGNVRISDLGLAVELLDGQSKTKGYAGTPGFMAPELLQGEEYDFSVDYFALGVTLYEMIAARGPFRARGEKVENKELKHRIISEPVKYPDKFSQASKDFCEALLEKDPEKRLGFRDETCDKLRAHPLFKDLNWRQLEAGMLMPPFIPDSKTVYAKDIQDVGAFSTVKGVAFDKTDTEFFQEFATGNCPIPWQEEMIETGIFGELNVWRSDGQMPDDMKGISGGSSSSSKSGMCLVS

[22] = molecular target: Serine/threonine-protein kinase Nek10 (Homo sapiens) (UniProt Q6ZWH5); experiment: Binding affinity to wild-type human partial length NEK10 (L488 to R809 residues) expressed in mammalian expression system assessed as residual binding level at 10 uM by Kinomescan method relative to control
[23] = molecular target: NT-3 growth factor receptor (Homo sapiens) (UniProt Q16288); experiment: Binding affinity to wild-type human partial length TRKC (Q531 to G825 residues) expressed in mammalian expression system assessed as residual binding level at 10 uM by Kinomescan method relative to control
NT-3 growth factor receptor (Homo sapiens), sequence (Q16288 32-839 limits assumed): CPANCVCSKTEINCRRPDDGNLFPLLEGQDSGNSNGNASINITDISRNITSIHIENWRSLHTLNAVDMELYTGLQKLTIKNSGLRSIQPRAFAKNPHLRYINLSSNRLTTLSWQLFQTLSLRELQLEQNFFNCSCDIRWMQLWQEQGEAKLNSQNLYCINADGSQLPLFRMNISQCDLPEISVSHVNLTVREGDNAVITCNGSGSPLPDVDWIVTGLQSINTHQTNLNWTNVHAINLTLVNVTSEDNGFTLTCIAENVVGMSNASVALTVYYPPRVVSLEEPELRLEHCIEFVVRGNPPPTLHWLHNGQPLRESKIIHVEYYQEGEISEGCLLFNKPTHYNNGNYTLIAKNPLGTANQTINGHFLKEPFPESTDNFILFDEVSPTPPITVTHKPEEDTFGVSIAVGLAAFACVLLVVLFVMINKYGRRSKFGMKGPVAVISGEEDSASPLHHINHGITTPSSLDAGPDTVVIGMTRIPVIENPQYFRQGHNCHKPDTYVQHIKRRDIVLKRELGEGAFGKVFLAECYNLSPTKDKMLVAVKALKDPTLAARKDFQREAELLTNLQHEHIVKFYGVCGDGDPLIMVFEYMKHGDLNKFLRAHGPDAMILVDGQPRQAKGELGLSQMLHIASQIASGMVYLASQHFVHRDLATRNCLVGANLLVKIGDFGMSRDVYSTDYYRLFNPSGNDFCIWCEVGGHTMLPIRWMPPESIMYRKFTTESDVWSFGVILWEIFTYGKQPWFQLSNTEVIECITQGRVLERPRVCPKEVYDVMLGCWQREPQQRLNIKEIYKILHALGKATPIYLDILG

## CC(C)N1C(=O)C(NCCCN(C)C)=C(c2cn(C)c3ccccc23)C1=O.Cl
[1]
  Activity: 97%
[2]
  Activity: 89%
[3]
  Activity: 90%
[4]
  Activity: 92%
[5]
  Activity: 100%
[6]
  Activity: 85%
[7]
  Activity: 83%
[8]
  Activity: 100%
[9]
  Activity: 82%
[10]
  Activity: 85%
[11]
  Activity: 92%
HL-60
  IC50: 450 nM
[12]
  Activity: 90%
[13]
  Activity: 100%
[14]
  Activity: 92%
[15]
  Activity: 94%
[16]
  Activity: 98%
[17]
  Activity: 77%
[18]
  Activity: 100%
[19]
  Activity: 77%
[20]
  Activity: 99%
[21]
  Activity: 96%
[22]
  Activity: 95%
[23]
  Activity: 100%
